Results taken from patent publication US20260256821A1, “USE OF GINSENOSIDE IN COMBINATION WITH PD-1 BLOCKER IN PREPARING MEDICAMENT AGAINST HEAD AND NECK SQUAMOUS CELL CARCINOMA” (CHINESE ACADEMY OF MEDICAL SCIENCES INSTITUTE OF MEDICINAL …, priority 2022, published 2026).

Tests used:
Cal-27 cells [1] = test: Proliferation of tongue squamous cell carcinoma Cal-27 cells (CCK-8); format: cell-based; settings: 48 h treatment, CCK-8, FIG. 1
Method: Cells in good growth state were counted and inoculated into 96-well plates with 100 μL per well according to a certain cell density. After the cells adherence to the wall overnight, a medicament solution was added to intervene the cells. After 48 h of medicament treatment, CCK-8 reagent was added, 10 μL per well. After incubation for 2 h, the culture plates were taken out and detected at 450 nm wavelength of the enzymograph.

Cal-27 cells [2] = test: Killing effect of lymphocytes on tumor cells in Cal-27/PBMC co-culture (Incucyte); format: cell-based; settings: compared with PBMC control group, anti-PD-1 antibody 5 μg/mL; for killing effect of lymphocytes on tumor cells: FIG. 5, Rg3 1, 5, 10 μM; for number of Cal-27 cells / killing effect of lymphocytes on tumor cells: FIG. 3, Rh2 1, 5, 10 μM, effect-to-target ratio 5:1
Method: Cal-27 cells in good growth state were digested and centrifuged, appropriate amount of cell suspension was taken and placed in a new centrifuge tube, incubated with the target red label reagent for 20 min, washed and centrifuged with serum-free culture solution, then plated, and placed in an incubator for overnight cultivation to make them adhere to the wall. PBMC stimulated by PHA was added into the well plate in ratios of 1:1, 5:1, 10:1 and 20:1, and Incucyte real-time dynamic cell imaging system was used to observe the killing effect of lymphocytes on tumor cells under different target ratio conditions.
Cal-27 cells in good growth statu were digested and centrifuged, incubated with red target labeling reagent for 20 min, and washed with serum-free culture solution. After the cells were adherence to the wall overnight, the PBMC stimulated by PHA was added to the well plate according to the effect-to-target ratio of 5:1 and co-cultured with Cal-27 cells. Ginsenoside Rh2 or ginsenoside Rg3 of medicament solution with different concentrations were prepared, and they and 5 μg/mL human anti-PD-1 antibody were added into the well plate for incubation, and were divided into control group, ginsenoside alone group, anti-PD-1 antibody alone group, ginsenoside and anti-PD-1 antibody combination group. The culture plates were placed into Incucyte real-time dynamic cell imaging analysis system for real-time monitoring.

[3] = test system: tumor-infiltrating lymphocytes; test: Tumor-infiltrating lymphocyte levels in mice tumor tissue (flow cytometry); format: in vivo; settings: for number/abundance of T cells infiltrating into tumors: FIGS. 7A and 7D
Method: (§1) The mice were randomly divided into four groups: model control group, ginsenoside Rh2 group (15 mg/kg), anti-PD-1 antibody group (200 μg/mice), and ginsenoside Rh2 in combination with anti-PD-1 antibody group. The administration time and volume were as follows: ginsenoside Rh2 was administered intragastrically 5 days before vaccination; anti-PD-1 antibody was administered intraperitoneally on days 3, 6, 9, and 12 after vaccination.
(§2) SCC-7 cells were resuscitated and expanded in large quantities. Trypsin was added to digest and the cells were collected. After counted, the cells were re-suspended in PBS solution and the cell concentration was adjusted, and the mice were inoculated with 5*10^6 cells/0.2 mL in the right armpit.
After the experiment, the mice's eyeballs were removed to collect blood, and the tumor tissue was peeled off. The tumor tissue was divided into two parts, one part was quickly frozen in liquid nitrogen and then transferred to a −80° C. refrigerator for storage, and the other part was stored in PBS solution for flow cytometry detection.
Mice tumor samples were cut into pieces with sterile scissors, ground gently with a syringe stopper, and filtered through a 40 μm filter to prepare a single cell suspension. The cell suspension was transferred to a new centrifuge tube, PBS solution was added, the supernatant was discarded after centrifugation, and the remaining was washed with PBS and centrifuged again. PBS was added to re-suspended, 100 μL of resuspending solution was placed into the flow tube, the corresponding flow cytometry antibody was added for incubating and staining for 20 minutes, and then on-machine detection was performed.

SCC-7 cells = test: Tumor growth in head and neck squamous cell carcinoma-bearing mice; format: in vivo; settings: FIG. 6A; alone, versus model control; Rh2 15 mg/kg intragastric; anti-PD-1 antibody 200 μg/mice intraperitoneal
Method: SPF grade C57 mice, 6 weeks old, female, were purchased from Beijing Charles River Laboratories Animal Company. […] OF MEDICINAL PLANT DEVELOPMENT. The experimental facilities comply with barrier environmental standards, with a temperature of 20° C. to 26° C., a relative humidity of 40% to 70%, and light and dark alternating for 12 hours each. Mice were raised in standard boxes, with 5 mice per cage. During the raising process, the animals were allowed to eat and move freely.
as §1, §2
Throughout the experiment, the tumor volume of the mice was measured twice weekly.
After the experiment, the mice's eyeballs were removed to collect blood, and the tumor tissue was peeled off. […]

[4] = Rh2 as metabolite relative to ginsenoside Rg3; cited from earlier work

Q: What does the source list for `CC(C)=CCC[C@](C)(O[C@@H]1O[C@H](CO)[C@@H](O)[C@H](O)[C@H]1O)[C@H]1CC[C@]2(C)[C@@H]1[C@H](O)C[C@@H]1[C@@]3(C)CC[C@H](O)C(C)(C)[C@@H]3[C@@H](O[C@@H]3O[C@H](CO)[C@@H](O)[C@H](O)[C@H]3O)C[C@]12C` [ginsenoside Rg1]?
A: IC50 (Cal-27 cells [1]): ~100 µM; inhibitory effect on Cal-27 cells (Cal-27 cells [1]): concentration-dependent inhibitory effects

Q: What does the source list for `CC(C)=CCC[C@](C)(O[C@@H]1O[C@H](CO[C@@H]2O[C@H](CO)[C@@H](O)[C@H](O)[C@H]2O)[C@@H](O)[C@H](O)[C@H]1O)[C@H]1CC[C@]2(C)[C@@H]1[C@H](O)C[C@@H]1[C@@]3(C)CC[C@H](O[C@@H]4O[C@H](CO)[C@@H](O)[C@H](O)[C@H]4O[C@@H]4O[C@H](CO)[C@@H](O)[C@H](O)[C@H]4O)C(C)(C)[C@@H]3CC[C@]12C` [ginsenoside Rb1]?
A: IC50 (Cal-27 cells [1]): ~100 µM; inhibitory effect on Cal-27 cells (Cal-27 cells [1]): concentration-dependent inhibitory effects

Q: For `CC(C)=CCC[C@](C)(O)[C@H]1CC[C@]2(C)[C@@H]1[C@H](O)C[C@@H]1[C@@]3(C)CC[C@H](O)C(C)(C)[C@@H]3[C@@H](O[C@@H]3O[C@H](CO)[C@@H](O)[C@H](O)[C@H]3O)C[C@]12C` [ginsenoside Rh1], which IC50 (Cal-27 cells [1]) is on record?
A: The IC50 was about 100 µM.

Q: And the “inhibitory effect on Cal-27 cells” value (Cal-27 cells [1])?
A: Its value is “concentration-dependent inhibitory effects”.

Q: With `CC(C)=CCC[C@](C)(O)[C@H]1CC[C@]2(C)[C@@H]1[C@H](O)C[C@@H]1[C@@]3(C)CC[C@H](O[C@@H]4O[C@H](CO)[C@@H](O)[C@H](O)[C@H]4O[C@@H]4O[C@H](CO)[C@@H](O)[C@H](O)[C@H]4O)C(C)(C)[C@@H]3CC[C@]12C` [ginsenoside Rg3] as the compound, how does the “killing effect of lymphocytes on tumor cells” value (Cal-27 cells [2]) read?
A: The value was “can promote the killing effect of lymphocytes”.

Q: What about the “inhibitory effect on Cal-27 cells” value (Cal-27 cells [1]) of the same compound?
A: Its value is “most significant inhibitory effect”.

Q: Which results are given for `CC(C)=CCC[C@](C)(O[C@@H]1O[C@H](CO[C@@H]2O[C@@H](CO)[C@H](O)[C@H]2O)[C@@H](O)[C@H](O)[C@H]1O)[C@H]1CC[C@]2(C)[C@@H]1[C@H](O)C[C@@H]1[C@@]3(C)CC[C@H](O[C@@H]4O[C@H](CO)[C@@H](O)[C@H](O)[C@H]4O[C@@H]4O[C@H](CO)[C@@H](O)[C@H](O)[C@H]4O)C(C)(C)[C@@H]3CC[C@]12C` [ginsenoside Rc]?
A: inhibitory effect on Cal-27 cells (Cal-27 cells [1]): concentration-dependent inhibitory effects; IC50 (Cal-27 cells [1]; Homo sapiens, CAL-27): ~100 µM

Q: Which “number/abundance of T cells infiltrating into tumors” value [3] does the source give for `CC(C)=CCC[C@](C)(O)[C@H]1CC[C@]2(C)[C@@H]1[C@H](O)C[C@@H]1[C@@]3(C)CC[C@H](O[C@@H]4O[C@H](CO)[C@@H](O)[C@H](O)[C@H]4O)C(C)(C)[C@@H]3CC[C@]12C` [ginsenoside Rh2] here?
A: The value was “neither ginsenoside Rh2 nor anti-PD-1 antibody had a significant effect”.

Q: And the “proportion of B cell activation” value ([3]; FIGS. 7C and 7F, P<0.05)?
A: The value was “significantly increase the proportion of B cell activation”.

Q: And the tumor volume (SCC-7 cells)?
A: The tumor volume was “significantly reduce the tumor size”.

Q: And the “number of Cal-27 cells / killing effect of lymphocytes on tumor cells” value (Cal-27 cells [2])?
A: The value was “can reduce the number of Cal-27 cells”.

Q: And the “inhibitory effect on Cal-27 cells” value (Cal-27 cells [1])?
A: The value was “most significant inhibitory effect”.

Q: And the content increased [4]?
A: The content increased was 50 times.

Q: What about the oral bioavailability increased [4] of the same compound?
A: The oral bioavailability increased was 5 times.

Q: For `CC(C)=CCC[C@](C)(O[C@@H]1O[C@H](CO)[C@@H](O)[C@H](O)[C@H]1O)[C@H]1CC[C@]2(C)[C@@H]1[C@H](O)C[C@@H]1[C@@]3(C)CC[C@H](O)C(C)(C)[C@@H]3[C@@H](O[C@@H]3O[C@H](CO)[C@@H](O)[C@H](O)[C@H]3O[C@@H]3O[C@@H](C)[C@H](O)[C@@H](O)[C@H]3O)C[C@]12C` [ginsenoside Re], which “inhibitory effect on Cal-27 cells” value (Cal-27 cells [1]) is on record?
A: The value was “concentration-dependent inhibitory effects”.

Q: And the IC50 (Cal-27 cells [1]; Homo sapiens, CAL-27)?
A: Its IC50 is about 100 µM.

Q: Which results are given for pembrolizumab [anti-PD-1 antibody]?
A: number/abundance of T cells infiltrating into tumors [3]: neither ginsenoside Rh2 nor anti-PD-1 antibody had a significant effect; infiltration level of CD8+ T cells in tumors ([3]; FIGS. 7B and 7E, P<0.05): increased significantly; tumor volume (SCC-7 cells): decreased slightly; number of Cal-27 cells / killing effect of lymphocytes on tumor cells (Cal-27 cells [2]): can also significantly promote the killing effect of lymphocytes; killing effect of lymphocytes on tumor cells (Cal-27 cells [2]): can significantly promote the killing effect of lymphocytes

Q: What does the source list for `CC(C)=CCC[C@](C)(O[C@@H]1O[C@H](CO[C@@H]2OC[C@@H](O)[C@H](O)[C@H]2O)[C@@H](O)[C@H](O)[C@H]1O)[C@H]1CC[C@]2(C)[C@@H]1[C@H](O)C[C@@H]1[C@@]3(C)CC[C@H](O[C@@H]4O[C@H](CO)[C@@H](O)[C@H](O)[C@H]4O[C@@H]4O[C@H](CO)[C@@H](O)[C@H](O)[C@H]4O)C(C)(C)[C@@H]3CC[C@]12C` [ginsenoside Rb3]?
A: IC50 (Cal-27 cells [1]): ~100 µM; inhibitory effect on Cal-27 cells (Cal-27 cells [1]): concentration-dependent inhibitory effects

Q: With `CC(C)=CCC[C@](C)(O[C@@H]1O[C@H](CO)[C@@H](O)[C@H](O)[C@H]1O)[C@H]1CC[C@]2(C)[C@@H]1[C@H](O)C[C@@H]1[C@@]3(C)CC[C@H](O)C(C)(C)[C@@H]3CC[C@]12C` [ginsenoside CK] as the compound, how does the “inhibitory effect on Cal-27 cells” value (Cal-27 cells [1]) read?
A: Its value is “most significant inhibitory effect”.
